Data: patent publication US10137162B1, “Gastroprotective extracts of Sonchus oleraceus L” (KING SAUD UNIVERSITY, priority 2018, dated 2018)

Assays:
[1] = system: absolute ethanol-induced ulcer; test: absolute ethanol-induced ulcer model (gastroprotective activity); assay type: in vivo, Male Wistar rats; settings: 20 mg/kg oral
Protocol: The absolute ethanol-induced ulcer model was used for evaluation of gastroprotective activity. Groups of 6 Male Wistar rats were used. Treated groups received either total alcohol extracts (SA or SR) at doses of about 250 mg/kg or about 500 mg/kg. […] A treatment group received Omeprazole (about 20 mg/kg) and a control group received water (about 5 mL/kg). All treatments were administered orally to all groups. […] After one hour all rats were sacrificed, the stomachs were rapidly removed, opened along their greater curvature, and gently rinsed under running tap water. The number and severity of ulcers were visually counted and the ulcer index was calculated. Ulcer indices (mm) were calculated as the sum of the total length of long ulcers and petechial lesions in each group of rats divided by its number. Percent protection was determined according to the following formula: [formula] All values were expressed as mean+S.D. Comparisons between means were carried out using a one-way ANOVA test followed by the Tukey HSD test using SPSS, version 14 (SPSS, Chicago, Ill.). Differences at p<0.05 were considered statistically significant.

[2] = system: ulcerative colitis induced by acetic acid; test: acetic acid-induced ulcerative colitis; assay type: in vivo, Male Wistar rats; settings: 0.1 mg/kg oral once daily, 5 days
Protocol: All medications were administered orally, once daily for 5 consecutive days and the first dose was administered about 2 h after ulcerative colitis induction by about 2 mL (4%, v/v) acetic acid in saline. Ulcer indices (mm) were calculated as the sum of the total length of long ulcers and petechial lesions in each group of rats divided by its number. All values were expressed as mean+S.D. Comparisons between means were carried out using a one-way ANOVA test followed by the Tukey HSD test using SPSS, version 14 (SPSS, Chicago, Ill.). Differences at p<0.05 were considered statistically significant.

For `COc1ccc2[nH]c([S+]([O-])Cc3ncc(C)c(OC)c3C)nc2c1` (stereo not drawn) [Omeprazole], the Score ([1]; 30 min before ethanol) was 2.50 and the “% protection” value ([1]; ethanol-induced ulcer) was 45.83%.
`C[C@@H]1C[C@H]2[C@@H]3CCC4=CC(=O)C=C[C@]4(C)[C@@]3(F)[C@@H](O)C[C@]2(C)[C@@]1(O)C(=O)CO` [Dexamethasone, dexamethasone] was tested, and the “% protection” value [2] was 66.36%.
